Test results published in patent US7968548B2, “Melanocortin receptor-specific piperazine compounds with diamine groups” (Palatin Technologies, Inc., priority 2005, dated 2011).

What was measured:
MC4-R [1] = target: T1, MC4-R (Homo sapiens, UniProt P32245); experiment: Competitive inhibition binding assay using [I125]-NDP-α-MSH, HEK-293 membranes, recombinant hMC4-R; parameters: expressed in transfected cells; host or cells: HEK-293; conditions: for inhibition at 1 µM: 1 μM compound
Description: (§1) A competitive inhibition binding assay was performed using membrane homogenates prepared from HEK-293 cells that express recombinant hMC4-R, hMC3-R, or hMC5-R, and from B-16 mouse melanoma cells (containing endogenous MC1-R). In some instances, HEK-293 cells that express recombinant hMC1-R were employed. In the examples that follow, all MC3-R, MC4-R and MC5-R values are for human recombinant receptors. MC1-R values are for B-16 mouse melanoma cells, unless the heading is “hMC1-R”, in which case the value is for human recombinant MC1-R. Assays were performed in 96 well GF/B Millipore multiscreen filtration plates (MAFB NOB10) pre-coated with 0.5% bovine serum albumin (Fraction V). […] After incubation for 60 minutes at 37° C., the assay mixture was filtered and the membranes washed three times with ice-cold buffer. Filters were dried and counted in a gamma counter for bound radioactivity. […] Maximal specific binding (100%) was defined as the difference in radioactivity (cpm) bound to cell membranes in the absence and presence of 1 μM NDP-α-MSH. […] Each assay was conducted in triplicate and the actual mean values are described, with results less than 0% reported as 0%. Ki values for test compounds were determined using Graph-Pad Prism® curve-fitting software.

MC4-R [2] = target: T1, MC4-R; experiment: Assay for agonist activity: cAMP accumulation in HEK-293 cells that express MC4-R; type: cell-based; parameters: expressed in transfected cells; host or cells: HEK-293; conditions: HEK293; cell line that expresses MC4-R; relative to NDP-α-MSH; read-out: maximum effect observed, % of the maximum achieved with NDP-α-MSH (cAMP)
Description: Assay for agonist activity. Accumulation of intracellular cAMP was examined as a measure of the ability of the test compounds to elicit a functional response in HEK-293 cells that express MC4-R. Confluent HEK-293 cells that express recombinant hMC4-R were detached from culture plates by incubation in enzyme-free cell dissociation buffer. Dispersed cells were suspended in Earle's Balanced Salt Solution containing 10 mM HEPES (pH 7.5), 1 mM MgCl2, 1 mM glutamine, 0.5% albumin and 0.3 mM 3-isobutyl-1-methyl-xanthine (IBMX), a phosphodiesterase inhibitor. The cells were plated in 96-well plates at a density of 0.5×10^5 cells per well and pre-incubated for 30 minutes. Cells were exposed for 1 hour at 37° C. to test compounds dissolved in DMSO (final DMSO concentration of 1%) at a concentration range of 0.05-5000 nM in a total assay volume of 200 μL. NDP-α-MSH was used as the reference agonist. At the end of the incubation period, cells were disrupted by the addition of 50 μL of lysis buffer (cAMP EIA kit, Amersham) followed by vigorous pipetting. Levels of cAMP in the lysates were determined using a cAMP EIA kit (Amersham). Data analysis was performed by nonlinear regression analysis with Graph-Pad Prism® software. The maximum efficacies of the test compounds were compared to that achieved by the reference melanocortin agonist NDP-αMSH.

MC1-R = target: T2, MC1-R (Mus musculus, UniProt Q01727); experiment: Competitive inhibition binding assay using [I125]-NDP-α-MSH, B-16 mouse melanoma cell membranes; conditions: B-16 mouse melanoma cells; for inhibition at 1 µM: 1 μM compound
T2 construct: from B-16 mouse melanoma cells (containing endogenous MC1-R); endogenous in cells; host or cells: B-16 mouse melanoma cells (membrane homogenates)
T2 sequence (Q01727 whole entry): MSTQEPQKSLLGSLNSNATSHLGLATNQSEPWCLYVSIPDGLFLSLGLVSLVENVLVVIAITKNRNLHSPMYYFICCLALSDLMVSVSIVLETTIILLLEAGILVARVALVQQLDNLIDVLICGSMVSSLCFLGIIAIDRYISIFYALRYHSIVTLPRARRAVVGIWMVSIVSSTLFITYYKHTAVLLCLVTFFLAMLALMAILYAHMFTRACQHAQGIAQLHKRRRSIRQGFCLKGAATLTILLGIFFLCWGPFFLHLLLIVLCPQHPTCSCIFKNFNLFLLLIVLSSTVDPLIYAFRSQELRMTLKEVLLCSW
Description: as §1

MC3-R = target: T3, MC3-R (Homo sapiens, UniProt P41968); experiment: Competitive inhibition binding assay using [I125]-NDP-α-MSH, HEK-293 membranes, recombinant hMC3-R; conditions: for inhibition at 1 µM: 1 μM compound
T3 construct: expressed in transfected cells; host or cells: HEK-293
T3 sequence (P41968 whole entry): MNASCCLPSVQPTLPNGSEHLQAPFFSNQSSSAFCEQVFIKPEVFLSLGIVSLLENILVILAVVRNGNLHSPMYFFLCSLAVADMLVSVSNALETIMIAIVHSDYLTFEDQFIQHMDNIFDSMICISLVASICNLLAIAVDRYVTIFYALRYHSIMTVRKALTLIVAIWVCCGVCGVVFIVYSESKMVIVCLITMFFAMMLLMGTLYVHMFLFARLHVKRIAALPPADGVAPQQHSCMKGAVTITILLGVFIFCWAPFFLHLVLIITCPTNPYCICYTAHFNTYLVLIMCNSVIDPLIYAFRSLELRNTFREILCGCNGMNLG
Description: as §1

MC5-R = target: T4, MC5-R (Homo sapiens, UniProt P33032); experiment: Competitive inhibition binding assay using [I125]-NDP-α-MSH, HEK-293 membranes, recombinant hMC5-R; conditions: for inhibition at 1 µM: 1 μM compound
T4 construct: expressed in transfected cells; host or cells: HEK-293
T4 sequence (P33032 whole entry): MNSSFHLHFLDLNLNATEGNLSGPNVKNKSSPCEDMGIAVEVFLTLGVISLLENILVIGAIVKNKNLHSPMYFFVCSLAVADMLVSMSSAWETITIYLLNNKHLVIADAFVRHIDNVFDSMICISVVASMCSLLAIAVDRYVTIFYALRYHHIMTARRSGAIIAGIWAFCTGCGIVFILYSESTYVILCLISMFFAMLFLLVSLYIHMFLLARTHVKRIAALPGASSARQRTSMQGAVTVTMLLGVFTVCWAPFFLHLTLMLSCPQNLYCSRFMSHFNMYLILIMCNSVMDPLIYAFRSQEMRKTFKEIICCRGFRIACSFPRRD
Description: as §1

[3] = Mouse model IP feeding studies in fasted animals (food intake); type: in vivo; conditions: 3 mg/kg, 20 hours
Description: (§2) Food intake and body weight after IN and IP dosing. Changes in food intake and body weight were evaluated for selected compounds. Male C57BL/6 mice were obtained from Jackson labs (Bar Harbor, Me.). Animals were individually housed in conventional plexiglass hanging cages and maintained on a controlled 12 hour on/off light cycle. Water and pelleted (Harlan Teklad 2018 18% Protein Rodent Diet) food was provided ad libitum. The mice were dosed IP (by intraperitoneal injection) after a 24 hour fast or IN (by intranasal administration) with vehicle or selected compounds (0.1-3 mg/kg, and in some cases up to 10 mg/kg). All animals were dosed once a day (or up to four consecutive days) at the start of the “lights off” period. The changes in food intake for the 4 hour and 20 hour period after dosing relative to control animals administered vehicle were determined. Body weights were determine 4 hours prior to dosing and 20 hours after dosing, and the change in body weight relative to control animals administered vehicle were determined.

[4] = Mouse model IN feeding studies (body weight); type: in vivo; conditions: 20 hours
Description: as §2

MC4-R [5] = target: T1, MC4-R; experiment: Competitive binding assay using [I125]-AgRP (83-132); parameters: expressed in transfected cells; conditions: hMC4-R membranes
Description: Competitive binding assay using [I^125]—AgRP (83-132). Competitive binding studies using [I^125]—AgRP (83-132) were carried out using membrane homogenates isolated from cells that express hMC4-R. The assays were performed in 96-well GF/B Millipore multiscreen filtration plates (MAFB NOB10) pre-coated with 0.5% bovine serum albumin (Fraction V). The assay mixture contained 25 mM HEPES buffer (pH 7.5) with 100 mM NaCl, 2 mM CaCl2, 2 mM MgCl2, 0.3 mM 1,10-phenanthroline, 0.5% bovine serum albumin, membrane homogenates, radioligand [I^125]—AgRP (83-132) (Perkin Elmer) and increasing concentrations of compounds in a total volume of 200 μL. Binding was measured at radioligand concentrations of 0.2 nM. After incubating for 1 hour at 37° C., the reaction mixture was filtered and washed with assay buffer containing 500 mM NaCl. The dried discs were punched out from the plate and counted on a gamma counter. […] Ki values for test compounds were determined using Graph-Pad Prism® curve-fitting software.

hMC1-R = target: T5, hMC1-R (Homo sapiens, UniProt Q01726); experiment: Competitive inhibition binding assay using [I125]-NDP-α-MSH, HEK-293 membranes, recombinant hMC1-R; conditions: human recombinant MC1-R
T5 construct: expressed in transfected cells; host or cells: HEK-293
T5 sequence (Q01726 whole entry): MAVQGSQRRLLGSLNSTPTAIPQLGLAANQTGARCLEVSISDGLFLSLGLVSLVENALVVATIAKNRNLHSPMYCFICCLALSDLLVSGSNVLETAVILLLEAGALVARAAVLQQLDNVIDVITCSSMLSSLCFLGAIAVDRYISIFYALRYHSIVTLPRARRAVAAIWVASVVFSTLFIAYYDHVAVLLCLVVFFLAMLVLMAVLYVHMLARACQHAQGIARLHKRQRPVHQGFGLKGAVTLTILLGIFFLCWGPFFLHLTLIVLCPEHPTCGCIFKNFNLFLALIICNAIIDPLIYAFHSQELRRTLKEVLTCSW
Description: as §1

T1 sequence (P32245 whole entry): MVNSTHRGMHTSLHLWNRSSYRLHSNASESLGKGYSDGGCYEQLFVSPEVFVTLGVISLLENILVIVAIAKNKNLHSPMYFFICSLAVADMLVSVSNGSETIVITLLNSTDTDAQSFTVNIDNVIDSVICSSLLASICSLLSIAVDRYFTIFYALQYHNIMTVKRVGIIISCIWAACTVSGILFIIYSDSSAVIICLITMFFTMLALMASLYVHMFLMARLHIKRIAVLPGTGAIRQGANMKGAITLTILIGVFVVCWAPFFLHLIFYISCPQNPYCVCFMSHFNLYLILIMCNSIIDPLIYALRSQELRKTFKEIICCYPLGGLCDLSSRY

Row | Structure (SMILES) | Ki (MC4-R [1]) [nM] | inhibition at 1 µM (MC4-R [1]) [%] | Emax (MC4-R [2]) [%] | inhibition at 1 µM (MC1-R) [%] | Ki (MC1-R) [nM] | Ki (MC3-R) [nM] | inhibition at 1 µM (MC3-R) [%] | Ki (MC5-R) [nM] | inhibition at 1 µM (MC5-R) [%] | average decrease in food intake compared to control animals [3] [%] | average decrease in body weight compared to control animals ([4]; 0.1 mg/kg) [%] | average decrease in body weight compared to control animals ([4]; 0.3 mg/kg) [%] | average decrease in body weight compared to control animals ([4]; 1 mg/kg) [%] | Ki (MC4-R [5]) [nM] | Ki (hMC1-R) [nM]
1 | CC(C)C[C@@H]1CN(C(=O)[C@H](N)Cc2ccc(Cl)cc2Cl)[C@@H](CCCCNCCN)CN1C(=O)Cc1ccc2ccccc2c1 [Example 1, (R)-2-Amino-1-[(2S,5R)-2-[4-(2-amino-ethylamino)-butyl]-5-isobutyl-4-(2-naphthalen-2-yl-acetyl)-piperazin-1-yl]-3-(2,4-dichloro-phenyl)-propan-1-one] | 18 | 98 | 61 | 55 | 102 | 250 | 71 | 301 | 68 |  |  |  |  |  | 
2 | CC(C)C[C@@H]1CN(C[C@H](N)Cc2ccc(Cl)cc2Cl)[C@@H](CCCCNCCN)CN1C(=O)Cc1ccc2ccccc2c1 [Example 2, 1-{(2R,5S)-4-[(R)-2-Amino-3-(2,4-dichloro-phenyl)-propyl]-5-[4-(2-amino-ethylamino)-butyl]-2-isobutyl-piperazin-1-yl}-2-naphthalen-2-yl-ethanone] | 23 |  | 16 |  | 558 | 190 |  | 143 |  | 28 | 2.5 | 3 | 4.7 | 72 | 
3 | Cc1ccc(C[C@H](CN2C[C@@H](C)N(C(=O)Cc3ccc4ccccc4c3)C[C@@H]2CCCN2CCN(C)CC2)N(C)C)c(C)c1 [Example 10, 1-{(2R,5S)-4-[(R)-2-Dimethylamino-3-(2,4-dimethyl-phenyl)-propyl]-2-methyl-5-[3-(4-methyl-piperazin-1-yl)-propyl]-piperazin-1-yl}-2-naphthalen-2-I-ethanone] |  | 47 |  | 28 |  |  | 15 |  | 54 |  |  |  |  |  | 
4 | CC(C)C[C@@H]1CN(C[C@H](N)Cc2ccc(Cl)cc2Cl)[C@@H](CCCNCCN)CN1C(=O)Cc1ccc2ccccc2c1 [Example 18, 1-{(2R,5S)-4-[(R)-2-Amino-3-(2,4-dichloro-phenyl)-propyl]-5-[3-(2-amino-ethylamino)-propyl]-2-isobutyl-piperazin-1-yl}-2-naphthalen-2-yl-ethanone] | 106 |  |  |  |  | 297 |  | 188 |  | 30 | 3 | 3.5 | 6.2 |  | 359
